Where a name gives a salt, the structure may show the parent alone.
Key:
[1] = tested on: HL-60 human promyelocytic leukemia; test: In vitro inhibition rate to tumor cells (MTT), HL-60; assay type: cell-based; conditions: 50 μg/ml
Description: (§1) (1) Single cell suspension was seeded into 96-well plates (×3) (the cells was diluted in the PRMI-1640 minimum medium to 3×10^4 cells/ml, […] diluted cells/well). […] The experiments were performed in quadruplicate.
(§2) (2) The medium was removed. Solutions of the anti-tumor agents (15 compounds) were prepared in a freshly prepared medium at the concentrations indicated in the following Table. […] of the solution was added into each well. Incubation was continued for 48 hours.
(§3) (3) […] of 2 mg/ml MTT was added into each well, and incubated for 4 hours.
(§4) (4) The medium was removed from the well. The microplates were swiftly turned down to throw-off the medium. […] DMSO was added into each well, and vortexed at room temperature for 10 minutes.
(§5) (5) OD value (λ=570 nm) was measured with an Enzyme-Linked Detector.
(§6) (6) The inhibition rates (IR) of cell growth were respectively calculated based on the following equation: IR(%)=[1−(average OD of the experimental group/average OD of the control group)]×100%

[2] = tested on: SMMC-7721 human hepatic carcinoma; test: In vitro inhibition rate to tumor cells (MTT), SMMC-7721; assay type: cell-based; conditions: 50 μg/ml
Description: as §1, §2, §3, §4, §5, §6

[3] = tested on: LLC mouse Lewis lung carcinoma; test: In vitro inhibition rate to tumor cells (MTT), LLC; assay type: cell-based; conditions: 50 μg/ml
Description: as §1, §2, §3, §4, §5, §6

293 cells = test: Cell status of 293 cells treated with sample alone (herpes virus screening); conditions: 200 μg/ml, 24 hrs
[4] = tested on: U-937 human histocytic lymphoma; test: In vitro inhibition rate to tumor cells (MTT), U-937; assay type: cell-based; conditions: 50 μg/ml
Description: as §1, §2, §3, §4, §5, §6

[5] = tested on: A-549 human lung adenocarcinoma; test: In vitro inhibition rate to tumor cells (MTT), A-549; assay type: cell-based; conditions: 50 μg/ml
Description: as §1, §2, §3, §4, §5, §6

[6] = tested on: Bel-7402 human hepatic carcinoma; test: In vitro inhibition rate to tumor cells (MTT), Bel-7402; assay type: cell-based; conditions: 50 μg/ml
Description: as §1, §2, §3, §4, §5, §6

[7] = tested on: MCF-7 human mammary adenocarcinoma; test: In vitro inhibition rate to tumor cells (MTT), MCF-7; assay type: cell-based; conditions: 50 μg/ml
Description: as §1, §2, §3, §4, §5, §6

[8] = tested on: Hela human cervical carcinoma; test: In vitro inhibition rate to tumor cells (MTT), Hela; assay type: cell-based; conditions: 50 μg/ml
Description: as §1, §2, §3, §4, §5, §6

HepG2 cells = test: Cell status of HepG2 cells treated with sample (HBV screening); assay type: cell-based; conditions: 200 μg/ml, HepG2, four days after infection
Hepatitis B virus (HBV) = assay type: cell-based
[9] = tested on: mouse grafted uterine cervix cancer U14; test: Activity against mouse grafted uterine cervix cancer U14; assay type: in vivo, Kunming mice; conditions: 1 mg/kg; for Tumor weight: X ± SD, n = 10
Description: (§7) The experiments were performed according to “Guideline for New Drugs (Western medicines) in Pre-clinical Stages” issued by Bureau of Drug Policy & Administration of the People's Republic of China, and the relevant methods in “Methodology of Pharmaceutical Experiments”, Xu Shuyun et al. ed. 120 male Kunming mice weighting […] were allowed to grow 3 days. No abnormality was observed. The mice were routinely inoculated in oxter with mouse sarcoma S-180, and weighted 4 hrs. after inoculation. The mice were randomly divided into 12 groups, 10 mice/group. Group 1 was given 0.3 ml of physiological saline as negative control; Group 2 was given 5-FU as positive control, 0.6 mg/mouse; Group 3 was given hydroxycamptothecine as positive control, 0.02 mg/mouse. Groups 4, 5 and 6 were injected with 10% Compound 6, 0.4 ml/mouse, 0.2 ml/mouse, and 0.1 ml/mouse, respectively. Groups 7, 8 and 9 were injected with 10% Compound 8, 0.4 ml/mouse, 0.2 ml/mouse, and 0.1 ml/mouse, respectively. Groups 10, 11, and 12 were injected with 10% Compound 20, 0.4 ml/mouse, 0.2 ml/mouse, and 0.1 ml/mouse, respectively. The tested compounds were administered on the next day after inoculation, once a day on alternate days, 6 doses totally administered. On the next day after the end dose, the mice were weighed and sacrificed. After the tumor was excised, body weight and tumor weight were recorded. The tumor inhibition rate was calculated based on the following formula: [(average tumor weight of the control groups−average tumor weight of the experimental groups)/average tumor weight of the control groups]×100%. The data was processed statistically. The above experiments were repeated three times.
(§8) The experiments were identical with the experiments for activity against mouse grafted sarcoma S-180, except the following:
(1) the tumor cell line inoculated was mouse grafted uterine cervix cancer U14;
(2) all the mice were female.

mouse lung cancer Lewis = test: Activity against mouse grafted lung cancer Lewis; assay type: in vivo, Kunming mice; conditions: Lewis, 1 mg/kg; for Tumor weight: X ± SD, n = 10
Description: as §7, §8
(1) the tumor cell line inoculated was mouse lung cancer Lewis;
(2) Compound 6, Compound 8 and Compound 21 were not tested for their activity;
(3) the mice were divided into six groups.

[10] = tested on: mouse grafted liver cancer H22; test: Activity against mouse grafted liver cancer H22; assay type: in vivo, Kunming mice; conditions: for Tumor weight: X ± SD, n = 10
Description: as §7
The experiments were identical with the experiments for activity against mouse grafted sarcoma S-180, except that the cell line inoculated was liver cancer H22. The experiments were repeated three times.

[11] = tested on: mouse grafted sarcoma S-180; test: Activity against mouse grafted sarcoma S-180; assay type: in vivo, Kunming mice; conditions: 1 mg/kg i.v., 6 doses; for Tumor weight: X ± SD, n = 10
Description: (1) Experimental animals: Kunming mice weighting 18-22 g;
(2) 100 mg/ml solutions of the 3 compounds were prepared, respectively, in water for injection (1% surface surfactant was added into the solution of Compound 6). 5-FU and camptothecine, 30 mg/kg and 1 mg/kg, respectively, were used as positive controls;
3. Route of Administration: Intravenous Injection.
as §7

[12] = Table 2 (repeated screening), hydrochloride
[13] = H22, first experiment, 1 mg/kg i.v., 6 doses
[14] = H22, second experiment, 1 mg/kg

**Q.** Which results are given for `C=C1CC2(OC(=O)c3ccccc3)OC3(CC2C(C)C)C(C)CCC13` (stereo not shown) [Compound 4, Curcumol benzoate]?
**A.** inhibition rate, Results (%) HL-60 ([1]; Table 1): 42.1%; inhibition rate, Results (%) HL-60 ([1]; Table 2 (repeated screening)): 40.01%; inhibition rate, Results (%) SMMC-7721 ([2]; Table 1): 5.30%; inhibition rate, Results (%) SMMC-7721 ([2]; Table 2 (repeated screening)): 1.96%; inhibition rate, Results (%) LLC ([3]; Table 1): 1.01%; inhibition rate, Results (%) LLC ([3]; Table 2 (repeated screening)): 0.23%; Cytopathy and cell status, Sample (293 cells): Good; inhibition rate, Results (%) U-937 ([4]; Table 1): 52.23%; inhibition rate, Results (%) U-937 ([4]; Table 2 (repeated screening)): 51.00%; inhibition rate, Results (%) A-549 ([5]; Table 1): 10.51%; inhibition rate, Results (%) A-549 ([5]; Table 2 (repeated screening)): 14.03%; inhibition rate, Results (%) Bel-7402 ([6]; Table 1): 43.21%; inhibition rate, Results (%) Bel-7402 ([6]; Table 2 (repeated screening)): 43.02%; inhibition rate, Results (%) MCF-7 ([7]; Table 1): 49.23%; inhibition rate, Results (%) MCF-7 ([7]; Table 2 (repeated screening)): 50.09%; inhibition rate, Results (%) Hela ([8]; Table 1): 73.22%; inhibition rate, Results (%) Hela ([8]; Table 2 (repeated screening)): 70.12%

**Q.** `CC(C)C1CC23OC1(O)C/C(=C\NC(C)(C)C)C2CCC3C` (stereo not shown) [Compound 16, Curcumol t-butyl amine hydrochloride] was tested. Which “inhibition rate, Results (%) HL-60” value ([1]; Table 1, hydrochloride) did it give?
**A.** 2.31%

**Q.** What about the “inhibition rate, Results (%) HL-60” value [1, 12] of the same compound?
**A.** 15.00%

**Q.** And the Cell status (HepG2 cells)?
**A.** Normal

**Q.** And the “inhibition rate, Results (%) SMMC-7721” value ([2]; Table 1)?
**A.** −2.50%

**Q.** And the “inhibition rate, Results (%) SMMC-7721” value [2, 12]?
**A.** 2.63%

**Q.** And the “inhibition rate, Results (%) LLC” value ([3]; Table 1, hydrochloride)?
**A.** 1.13%

**Q.** What about the “inhibition rate, Results (%) LLC” value [3, 12] of the same compound?
**A.** 0.22%

**Q.** And the “inhibition rate, Results (%) U-937” value ([4]; Table 1, hydrochloride)?
**A.** 82.56%

**Q.** What about the “inhibition rate, Results (%) U-937” value [4, 12] of the same compound?
**A.** 80.12%

**Q.** And the “inhibition rate, Results (%) A-549” value ([5]; Table 1, hydrochloride)?
**A.** 6.01%

**Q.** What about the “inhibition rate, Results (%) A-549” value [5, 12] of the same compound?
**A.** 10.19%

**Q.** And the “inhibition rate, Results (%) Bel-7402” value ([6]; Table 1, hydrochloride)?
**A.** 1.23%

**Q.** And the “inhibition rate, Results (%) Bel-7402” value [6, 12]?
**A.** 8.99%

**Q.** And the “inhibition rate, Results (%) MCF-7” value ([7]; Table 1, hydrochloride)?
**A.** 54.89%

**Q.** What about the “inhibition rate, Results (%) MCF-7” value [7, 12] of the same compound?
**A.** 50.32%

**Q.** What about the “(Value of the positive control - Measured Value) Value of the positive control × 100%” value (Hepatitis B virus (HBV); 200 μg/ml, decrease of HBeAg relative to positive control) of the same compound?
**A.** 73.81%

**Q.** And the “OD450 of HBeAg” value (Hepatitis B virus (HBV); 200 μg/ml, supernatant four days after infection, positive control 1.917, negative 0.057)?
**A.** 0.502

**Q.** What about the “activity against HBV (in words)” value (Hepatitis B virus (HBV); primary screening, HBV e antigen, HepG2, 13 samples) of the same compound?
**A.** had the activity against HBV

**Q.** What about the “inhibition rate, Results (%) Hela” value ([8]; Table 1, hydrochloride) of the same compound?
**A.** 68.99%

**Q.** What about the “inhibition rate, Results (%) Hela” value [8, 12] of the same compound?
**A.** 70.32%

**Q.** Which results are given for “hydroxycamptothecine [reference compound]”?
**A.** Average weight(g)-after administration ([9]; U14, first experiment): 22.2 g; Inhibition rate (%) ([9]; U14, first experiment): 45.8%; Tumor weight ([9]; U14, first experiment): 1.90 ± 0.28 g; Average weight(g)-after administration ([9]; U14, second experiment): 22.3 g; Inhibition rate (%) ([9]; U14, second experiment): 46.5%; Tumor weight ([9]; U14, second experiment): 1.82 ± 0.28 g; Average weight (g)-after administration ([9]; U14, third experiment): 21.3 g; Inhibition rate (%) ([9]; U14, third experiment): 45.6%; Tumor weight ([9]; U14, third experiment): 1.96 ± 0.28 g; Average weight (g)-after administration (mouse lung cancer Lewis; second experiment): 21.0 g; Inhibition rate (%) (mouse lung cancer Lewis; second experiment): 50.2%; Tumor weight (mouse lung cancer Lewis; second experiment): 1.20 ± 0.28 g; Average weight (g)-after administration (mouse lung cancer Lewis; third experiment): 21.5 g; Inhibition rate (%) (mouse lung cancer Lewis; third experiment): 51.9%; Tumor weight (mouse lung cancer Lewis; third experiment): 1.30 ± 0.28 g; Average weight(g)-after administration [10, 13]: 20.5 g; Inhibition rate (%) [10, 13]: 63.9%; Tumor weight [10, 13]: 1.12 ± 0.28 g; Average weight(g)-after administration [10, 14]: 20.2 g; Inhibition rate (%) [10, 14]: 66.9%; Tumor weight [10, 14]: 1.00 ± 0.28 g; Average weight (g)-after administration ([10]; H22, third experiment, 1 mg/kg): 22.2 g; Inhibition rate (%) ([10]; H22, third experiment, 1 mg/kg): 65.3%; Tumor weight ([10]; H22, third experiment, 1 mg/kg): 1.05 ± 0.28 g; Average weight (g)-after administration ([11]; S-180, first experiment): 20.8 g; Inhibition rate (%) ([11]; S-180, first experiment): 65.2%; Tumor weight ([11]; S-180, first experiment): 0.87 ± 0.28 g; Average weight(g)-after administration ([11]; S-180, second experiment): 20.8 g; Inhibition rate (%) ([11]; S-180, second experiment): 64.6%; Tumor weight ([11]; S-180, second experiment): 0.92 ± 0.38 g

Reference: patent US7700584B2 (Hangzhou Minsheng Pharmaceuticals Co., Ltd., priority 2004, dated 2010)
